Source: patent publication US11442059B2, “Method for treating a chronic itch condition by administering small molecule MrgprX4 antagonists” (The Johns Hopkins University, priority 2017, dated 2022)
Values belong to the molecule of their own block, whether it stands above or below them. Non-standard residues stand in square brackets, D forms with d. Residues, ends and D or L forms follow the SMILES beside them. *: point of attachment. Boc = CC(C)(C)OC(=O)*; OBn = c1ccc(CO*)cc1; For = O=C*

Columns and labels:
MrgprA1 [1] = molecular target: T1, MrgprA1 (Mus musculus, UniProt Q91WW5); experiment: Microscale thermophoresis binding assay, MRGPRA1; conditions: FIG. 24E
T1 construct: expressed in transfected cells; whole cells or crude membrane fraction
T1 sequence (Q91WW5 1-304): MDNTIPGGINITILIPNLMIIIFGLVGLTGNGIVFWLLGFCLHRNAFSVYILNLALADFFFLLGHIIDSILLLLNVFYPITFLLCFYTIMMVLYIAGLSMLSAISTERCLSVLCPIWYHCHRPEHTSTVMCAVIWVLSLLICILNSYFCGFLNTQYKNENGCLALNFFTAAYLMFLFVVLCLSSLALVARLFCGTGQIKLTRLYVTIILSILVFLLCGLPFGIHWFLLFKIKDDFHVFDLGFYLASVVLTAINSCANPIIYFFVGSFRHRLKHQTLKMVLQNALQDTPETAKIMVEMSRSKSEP
Method: (§1) Binding isotherms for MRGPRA1, MRGPRX4, and MRGRPC11 towards various ligands were determined by microscale thermophoresis with the NanoTemper monolith NT.115 instrument^27. Ligands were pre-incubated with 10 μM of the GFP-tagged receptor of interest for 5 minutes at room temperature in binding buffer (20 mM Tris and 150 mM NaCl at pH 8.8). Receptors were crudely purified as a membrane fraction from cells stably expressing the receptor^45. Haem metabolites were freshly dissolved in 0.1 M NaOH in dim light and then diluted into assay buffer. Lyophilized BAMS-22 was dissolved in binding buffer. The pH of each ligand was evaluated prior to incubation with a receptor. Samples were loaded into NT.115 Hydrophobic-Treated Capillaries from NanoTemper. Microscale thermophoretic experiments were executed using 20% LED power and 15% MST power. KDs were calculated using the law of mass action with data from three independent experiments. Binding between bilirubin and receptors was evaluated purely thermophoretically, whereas binding between BAMS-22 and MRGPRC11 was evaluated by T-Jump. Samples with dramatic deviations in initial fluorescence were excluded.

mice [2] = experiment: Acute itch behaviour after injection (scratching bouts); type: in vivo, mouse
MRGPRX4 [3] = molecular target: T2, MRGPRX4 (Homo sapiens, UniProt Q96LA9); experiment: Microscale thermophoresis binding assay, MRGPRX4; parameters: expressed in transfected cells; whole cells or crude membrane fraction; conditions: FIG. 24J
Method: as §1

MrgprA1 [4] = molecular target: T1, MrgprA1; experiment: Fura 2-AM calcium imaging, EC50 and IC50 determinations, MRGPRA1 HEK293 cells; type: cell-based; conditions: for activation of MRGPRA1-expressing cells (calcium): concentration-Ca2+ response, FIG. 24D
Method: (§2) Cells were imaged in calcium imaging buffer (CIB; 10 mM HEPES, 1.2 mM NaHCO3, 130 mM NaCl, 3 mM KCl, 2.5 mM CaCl2, 0.6 mM MgCl2, 20 mM glucose, and 20 mM sucrose at pH 7.4 and 290-300 mOsm). To monitor changes in intracellular [Ca^2+] ([Ca^2+]i), cells were loaded with either Fura 2-AM (HEK293 cells) or Fluo 4-AM (DRG neurons and mast cells) for 30 min in the dark at 37° C. in CIB just prior to imaging. With Fura 2-AM, emission at 510 nm was monitored from excitation at both 340 nm and 380 nm. With Fluo 4-AM, emission at 520 nm was monitored from excitation at 488 nm. Cells were identified as responding if the intracellular [Ca^2+] rose by either 50% compared to baseline or 50% compared to the [Ca^2+]i change assayed during addition of 50 mM KCl (neurons only). Damaged, detached, high-baseline, and motion-activated cells were excluded from analysis.
(§3) In initial screens, HEK293 cells stably expressing the murine G-protein alpha-subunit Gα15, a unique Gα protein that non-selectively couples a large variety of GPCRs to phospholipase C^30, were plated on poly-D-lysine-coated coverslips and transiently transfected with constructs encoding the MRGRPR of interest. 12-24 h later, cells were loaded with the Fura 2-AM. Unless otherwise specified, compounds were perfused into the imaging chamber for approximately thirty seconds after a baseline period was established. Response was then monitored at 5 s intervals for an additional 60 s.
(§4) HEK293 cells stably expressing either MRGPRA1, MRGPRX4, and MRGRPC11 were seeded in poly-D-lysine-coated 96-well plates at 10,000 cells/well. Cells were loaded with Fura 2-AM, washed twice, and maintained in CIB. Haem metabolites were freshly dissolved in DMSO in dim light and then diluted into a buffer comprised of 20 mM Tris and 150 mM NaCl at pH 8.8. Potential changes in pH were evaluated prior to each experiment. EC50 values were determined from dose-responses performed in triplicate, repeated 2-4 times. To determine potential antagonism by QWF against bilirubin, cells were treated with varying doses of QWF for 1 min in CIB prior to application of agonist.

MRGPRX4 [5] = molecular target: T2, MRGPRX4; experiment: Fura 2-AM calcium imaging, EC50 determinations, MRGPRX4 HEK293 cells; type: cell-based; parameters: expressed in transfected cells; whole cells or crude membrane fraction; conditions: for activation of MRGPRX4-expressing cells (calcium): concentration-Ca2+ response, FIG. 24I
Method: as §2, §3
as §4, with “To determine potential antagonism by QWF against bilirubin, cells were treated with varying doses of QWF for 1 min in CIB prior to application of agonist.” left out

MrgprA1 [6] = molecular target: T1, MrgprA1; experiment: FLIPR calcium assay (Flexstation3), HEK cells stably expressing MrgprA1; type: cell-based; conditions: MrgprA1 HEK cells, FIG. 17B
Method: EC50s were calculated using HEK cells stably expressing either MrgprA1 or MrgprX4. Cells were loaded with FLIPR calcium imaging dye, and a Flexstation3 machine (Molecular Devices) was used for reading changes in fluorescence. Wells were run in triplicate, and all values from each plate were normalized to the highest responding well. […] The x-axis depicts a modified logarithmic scale. […] FIG. 18B is a graph depicting the EC50 for MrgprX4 for bilirubin is approximately 3 μM.

MRGPRX4 [7] = molecular target: T2, MRGPRX4; experiment: Ca2+ imaging / EC50 determination in HEK293 cells expressing MRGPRX4; type: cell-based; parameters: expressed in transfected cells; conditions: Mrgprs individually expressed in HEK293 cells
Method: (§5) Lamotrigine (LTG), allopurinol, carbamazepine and oxcarbazepine (all from Sigma) were prepared fresh on the day of the experiment. These drugs were dissolved into dimethyl sulfoxide (DMSO) first, and then were diluted at least 10000× into calcium imaging buffer before use. The final concentrations of drugs for each experiment were indicated in the corresponding figure legend.
(§6) In initial experiments, HEK293 cells were plated on 100 μg/ml poly-D-lysine coated glass cover slips, and transiently transfected with vector containing Mrgprs gene, after 24-48 hours of culture, cells were loaded with Fura 2-acetomethoxy ester calcium indicator (0.5 μM, Molecular Probes) along with pluronic F-127 dispersing agent (0.1%, Molecular Probes) for 30 minutes in the dark at 37° C., then washed with calcium imaging buffer (CIB; NaCl 125 mM, KCl 3 mM, CaCl2 2.5 mM, MgCl2 0.6 mM, HEPES 10 mM, glucose 20 mM, NaHCO3 1.2 mM, sucrose 20 mM, brought to pH 7.4 with NaOH). Drugs were added to Fura 2-loaded cells and intracellular free calcium was measured using 340 nm and 380 nm excitation wavelengths with emission measured at 520 nm with a microscope based imaging system (Nikon Eclipse TE200). Changes in emission fluorescence ratios at 340/380 nm excitation were continuously monitored at 1 second intervals. Later, experiments were performed using Mrgpra1-GFP, Mrgprc11-GFP and MRGPRX4-GFP stable cell lines to confirm the findings obtained from the transiently expressing cells.
(§7) Mrgpra1 or both wild-type and mutant MRGPRX4 stably expressed HEK cells were plated overnight in 100 μl culture media on 96-well plates. […] After 1 hour of incubation at 37° C., cells were allowed to recover for 10 minutes in the dark at room temperature prior to performing intracellular calcium mobilization assay in a FLEXSTATION® multi-mode plate reader (Molecular Devices). […] Responses were determined by subtracting the minimum signal (at the basal level before adding the drug) from the maximum signal (obtained after stimulating with the drug). […]

mouse Mrgpra1 = molecular target: T3, mouse Mrgpra1 (Mus musculus, UniProt Q91WW5); experiment: Ca2+ imaging / EC50 determination in HEK293 cells expressing Mrgpra1; type: cell-based; conditions: Mrgprs individually expressed in HEK293 cells
T3 construct: expressed in transfected cells; host or cells: HEK293
T3 sequence (Q91WW5 1-304): T1 sequence (Q91WW5 1-304)
Method: as §5, §6, §7

129S1/SvImJ mice = experiment: SJS/TEN mouse model (daily oral gavage of causative drug); type: in vivo; conditions: mouse, in vivo
Method: Eight-to-ten week old male mice were orally gavaged with either causative drugs (LTG, allopurinol, oxcarbazepine) suspended in saline or saline once daily. The dosage was based on milligrams per kilogram of animal's body weight as indicated (for example, LTG 50 mg kg^−1 body weight). Skin, eyes, and mucosa, survival, body weight, physical and gross appearances (particularly on the eyes, mucosa and skins) were monitored every day.
The animals were deeply anesthetized with pentobarbital and transcardially perfused with 20 ml 0.1 M cold PBS (pH 7.4) followed with 25 ml of cold 4% paraformaldehyde (PFA). Paw skin, eyelid, spleen, lymph nodes were dissected out. postfixed in 4% PFA for more than two hours, and cryoprotected in a 20% followed by 30% sucrose solution for 24 hours each at 4° C. Tissue samples were embedded in the optimal cutting temperature (OCT) and frozen before being serially cut into 20 μm sections and placed onto slides. Hematoxylin and eosin (H&E) staining was performed using standard procedures according to the manufacturer's instruction VITROVIEW™ H&E Stain Kit). To quantify amount of apoptotic cells, terminal deoxynucleotidyl transferase dUTP nick end labeling (TUNEL) assay, a method for detecting DNA fragmentation that results from apoptotic cells by labeling the terminal end of nucleic acids, was performed by following the protocol of Apo-BrdU DNA Fragmentation Assay Kit (Biovision). To estimate the total cell number in tissue, all nuclei were stained with propidium iodide. Digital photographs were captured under confocal fluorescent microscopy at x200 magnification (Zeiss LSM 700). The number of TUNEL-positive nuclei were counted and reported as a percentage over the number of total nuclei observed in the skin's epidermis layer.

mice [8] = test system: mice
[9] = molecular target: human MRGPRX3 (Mas-related G-protein coupled receptor member X3) (human) (UniProt Q96LB0); experiment: cell-based or functional assay
[10] = molecular target: T4, murine MRGPRA1 stably expressed in HEK293 cells (GFP-tagged, pEGFP-N1) (mouse, UniProt Q91WW5 1-304); experiment: cell-based or functional assay
T4 sequence (looked up): T1 sequence (Q91WW5 1-304)

[11] = 10 μM pre-incubated 30 minutes, 50 μM bilirubin

T2 sequence (Q96LA9 whole entry): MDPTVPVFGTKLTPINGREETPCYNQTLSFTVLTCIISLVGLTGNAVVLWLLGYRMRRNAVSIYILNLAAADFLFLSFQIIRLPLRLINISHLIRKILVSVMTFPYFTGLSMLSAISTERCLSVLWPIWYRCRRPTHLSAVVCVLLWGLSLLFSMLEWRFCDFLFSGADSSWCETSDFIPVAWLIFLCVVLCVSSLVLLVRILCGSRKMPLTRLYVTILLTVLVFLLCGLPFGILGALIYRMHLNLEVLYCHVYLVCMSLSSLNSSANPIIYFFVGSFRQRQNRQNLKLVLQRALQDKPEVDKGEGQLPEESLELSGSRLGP
Chain of human MRGPRX3 (Mas-related G-protein coupled receptor member X3) (human) (Q96LB0 whole entry): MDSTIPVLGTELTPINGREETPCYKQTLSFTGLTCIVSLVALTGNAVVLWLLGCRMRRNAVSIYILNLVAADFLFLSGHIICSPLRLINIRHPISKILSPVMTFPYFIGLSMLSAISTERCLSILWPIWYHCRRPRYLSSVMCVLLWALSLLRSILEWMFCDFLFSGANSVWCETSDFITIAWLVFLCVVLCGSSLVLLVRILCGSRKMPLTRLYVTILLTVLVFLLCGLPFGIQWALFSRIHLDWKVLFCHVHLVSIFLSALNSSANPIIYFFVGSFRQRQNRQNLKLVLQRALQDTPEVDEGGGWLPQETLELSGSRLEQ

binding to MRGPRA1 (MrgprA1 [1]): did not bind
binding to MRGPRX4 (MRGPRX4 [3]): did not bind
activation of MRGPRA1-expressing cells (calcium) (MrgprA1 [4]): failed to activate
activation of MRGPRX4-expressing cells (calcium) (MRGPRX4 [5]): no effect
Molecule: C=CC1=C(C)c2cc3[n-]c(cc4nc(cc5[n-]c(cc1n2)c(C)c5C=C)C(C)=C4CCC(=O)O)c(CCC(=O)O)c3C.[Cl-].[Fe+3] [haemin]
scratching / itch elicited by injection (mice [2]; WT mice): did not induce scratching

Molecule: COc1ccc2c(c1)CC[C@@H]1[C@@H]2CC[C@]2(C)[C@@H](NCCCCCCN3C(=O)C=CC3=O)CC[C@@H]12 [U73122]
effect on bilirubin-induced calcium responses, MRGPRA1 (MrgprA1 [4]; [11]): abolished
effect on bilirubin-induced calcium responses, MRGPRX4 (MRGPRX4 [5]; [11]): inhibited
effect on bilirubin calcium influx (MrgprA1 [6]): blocked the calcium influx

binding to MRGPRA1 (MrgprA1 [1]): lower affinities compared to bilirubin
binding to MRGPRX4 (MRGPRX4 [3]): lower affinities compared to bilirubin
activation of MRGPRA1-expressing cells (calcium) (MrgprA1 [4]): activated
activation of MRGPRX4-expressing cells (calcium) (MRGPRX4 [5]): activated
Molecule: C=CC1=C(C)/C(=C/c2[nH]c(Cc3[nH]c(/C=C4\NC(=O)C(C)=C4C=C)c(C)c3CCC(=O)NCCS(=O)(=O)O)c(CCC(=O)NCCS(=O)(=O)O)c2C)NC1=O [Conjugated bilirubin, bilirubin ditaurate]

activation of human MRGPRX4 (Ca2+ imaging) (MRGPRX4 [7]): specifically activated
activation of mouse Mrgpra1 (Ca2+ imaging) (mouse Mrgpra1): specifically activated
eye manifestation (129S1/SvImJ mice): can also induce eye manifestation
Molecule: NC(=O)N1c2ccccc2CC(=O)c2ccccc21 [oxcarbazepine]

Molecule: S=C=Nc1cccc2ccccc12 [ANIT, α-naphthyl isothiocyanate]
reduction in scratching bouts, Cluster KO versus WT littermates (mice [8]; 25 mg/kg ANIT per os daily): ~46%

Molecule: CC(C)(C)OC(=O)N[C@@H](CCC(N)=O)C(=O)N[C@H](Cc1cn(C=O)c2ccccc12)C(=O)N[C@@H](Cc1ccccc1)C(=O)OCc1ccccc1 [QWF, BOC-GLN-D-(FORMYL)TRP-PHE-BENZYLESTER] (Boc-Gln-[dW](For)-Phe-OBn)
effect on pruritus associated with bilirubin (mice [2]; 0.25 mg/kg co-injected with bilirubin): significantly alleviated pruritus
effect on chloroquine-MRGPRA3 associated itch (mice [2]; co-injected with chloroquine): did not attenuate
scratching versus vehicle-treated animals (mice [8]; ANIT-dosed WT animals, 1 mg/kg i.p. thirty minutes prior to behavioral analysis): scratched significantly less
plasma levels of total bilirubin, AST, ALT, or ALP (mice [8]; mouse, in vivo, ip, 1 mg/kg): did not change

percentage of primary human keratinocytes that responded to hBD3 (Ca^2+), after siRNA knock-down of MRGPRX3 [9]: < 20%
percentage of primary human keratinocytes that responded to hBD3 (Ca^2+), before MRGPRX3 knock-down [9]: > 80%
Molecule: synthetic human Beta-defensin 3 (hBD3) (from UniProt P81534 23-67) (peptide)

IC50 for inhibition of bilirubin-induced Ca^2+ signal in MRGPRA1-expressing HEK cells (200 µM bilirubin) [10]: 2900 nM
Molecule: Boc-Gln-[dW](For)-Phe-OBn [BOC-GLN-D-(FORMYL)TRP-PHE-BENZYLESTER (QWF)]
